O=C(Nc1ccc(F)cc1F)c1cccnc1Oc1cccc(C(F)(F)F)c1
solubility (mole fraction)
Conditions	278.15 K	283.15 K	288.15 K	293.15 K	298.15 K	303.15 K	308.15 K	313.15 K	318.15 K	323.15 K
in ethanol	0.000246	0.000325	0.000425	0.00055	0.000703	0.000894	0.00113	0.00142	0.00177	0.0022
in ethyl acetate	0.0105	0.0125	0.015	0.0176	0.0206	0.024	0.0281	0.0322	0.0371	0.0429
in isopropanol	4.4e-05	7.09e-05	0.000114	0.000186	0.000292	0.000456	0.00069	0.00104	0.00158	0.00232
in methanol	0.000223	0.0003	0.000385	0.000489	0.000633	0.000799	0.000999	0.00125	0.00155	0.00193
in water	1.52e-07	2e-07	2.53e-07	3.15e-07	3.93e-07	4.84e-07	5.94e-07	7.19e-07	8.81e-07	1.07e-06
